Data reported in publication PMC4581874 (PLoS ONE, 2015).

Legend:
PDGFRβ = target: T1, PDGFRβ (Homo sapiens, UniProt P09619); assay: In vitro kinase assay, PDGFRβ; type: biochemical
T1 construct: purchased Millipore UK Ltd., Dundee, UK (now Eurofins Scientific); KinaseProfiler / IC50 Profiler service
Experimental: (§1) All kinase assays were carried out using KinaseProfiler^TM and IC50 Profiler^TM (Millipore UK Ltd., Dundee, UK. Now Eurofins Scientific, Dundee, UK). All IC50 data were presented as the mean values. The Curves obtained to determine IC50 values were shown in Supporting Information (S1 Fig).

CDK9/cyclin T1 (h) = target: T2, CDK9/cyclin T1 (h) (Homo sapiens, UniProt P50750); assay: Kinase profile, CDK9/cyclin T1; type: biochemical; settings: mean ± S.D.
T2 construct: purchased Millipore (now Eurofins) KinaseProfiler / IC50 Profiler
Experimental: as §1

CaMKIIδ (h) = target: T3, CaMKIIδ (h) (Homo sapiens, UniProt Q13557); assay: Kinase profile, CaMKIIδ; type: biochemical; settings: mean ± S.D.
T3 construct: purchased Millipore (now Eurofins) KinaseProfiler / IC50 Profiler
Experimental: as §1

PKCη (h) = target: T4, PKCη (h) (Homo sapiens, UniProt P24723); assay: Kinase profile, PKCη; type: biochemical; settings: mean ± S.D.
T4 construct: purchased Millipore (now Eurofins) KinaseProfiler / IC50 Profiler
Experimental: as §1

SAPK2a (h) = target: T5, SAPK2a (h) (Homo sapiens, UniProt Q16539); assay: Kinase profile, SAPK2a; type: biochemical; settings: mean ± S.D.
T5 construct: purchased Millipore (now Eurofins) KinaseProfiler / IC50 Profiler
Experimental: as §1

HUVECs [1] = assay: VEGF-induced tube formation assay; type: cell-based, human; settings: VEGF 50 ng/mL, compound 1 μg/mL
Experimental: For analyzing of the antagonistic response to VEGF, tube formation, scratch wound migration, and cell proliferation assays were performed after the exposure of HUVECs to 50 ng/mL VEGF-A (R&D Systems, Minneapolis, MN), which induced a significant angiogenic response. For the cell proliferation assays, cells were incubated overnight in endothelial basal media (EBM; Lonza, Walkersville, MD, USA) containing 0.5% FBS or supplemented with VEGF-A and/or VEGF inhibitors. The cells were washed with PBS and counted in 4 random microscope fields. The tube formation assay was performed by seeding cells on Matrigel-coated plates (BD Bioscience, Bedford, MA, USA) and incubating in EBM containing 0.5% FBS or supplemented with VEGF-A and/or VEGF inhibitors. After overnight incubation, tubule networks were quantified by measuring the tubule length in 4 random microscope fields. For the analysis of scratch wound migration, confluent cell monolayers grown on 6-well plates were scratched using a micropipette tip. […] Cell migration was observed by optical microscopy and quantified by measuring the number of cells that had migrated from the wound edges.
In (A) and (B), the number of cells was expressed as the fold change with respect to the number of cells seeded at day 0. […]

Abl (h) = target: T6, Abl (h) (Homo sapiens, UniProt P00519); assay: Kinase profile, Abl; type: biochemical; settings: mean ± S.D.
T6 construct: purchased Millipore (now Eurofins) KinaseProfiler / IC50 Profiler
Experimental: as §1

PKCθ (h) = target: T7, PKCθ (h) (Homo sapiens, UniProt Q04759); assay: Kinase profile, PKCθ; type: biochemical; settings: mean ± S.D.
T7 construct: purchased Millipore (now Eurofins) KinaseProfiler / IC50 Profiler
Experimental: as §1

AMPKα1 (h) = target: T8, AMPKα1 (h) (Homo sapiens, UniProt Q13131); assay: Kinase profile, AMPKα1; type: biochemical; settings: mean ± S.D.
T8 construct: purchased Millipore (now Eurofins) KinaseProfiler / IC50 Profiler
Experimental: as §1

Lyn (h) = target: T9, Lyn (h) (Homo sapiens, UniProt P07948); assay: Kinase profile, Lyn; type: biochemical; settings: mean ± S.D.
T9 construct: purchased Millipore (now Eurofins) KinaseProfiler / IC50 Profiler
Experimental: as §1

CDK5/p25 (h) = target: T10, CDK5/p25 (h) (Homo sapiens, UniProt Q00535); assay: Kinase profile, CDK5/p25; type: biochemical; settings: mean ± S.D.
T10 construct: purchased Millipore (now Eurofins) KinaseProfiler / IC50 Profiler
Experimental: as §1

IR (h) = target: T11, IR (h) (Homo sapiens, UniProt P06213); assay: Kinase profile, IR; type: biochemical; settings: mean ± S.D.
T11 construct: purchased Millipore (now Eurofins) KinaseProfiler / IC50 Profiler
Experimental: as §1

cKit = target: T12, cKit (Homo sapiens, UniProt P10721); assay: In vitro kinase assay, cKit; type: biochemical
T12 construct: purchased Millipore UK Ltd., Dundee, UK (now Eurofins Scientific); KinaseProfiler / IC50 Profiler service
Experimental: as §1

CDK2/cyclin E (h) = target: T13, CDK2/cyclin E (h) (Homo sapiens, UniProt P24941); assay: Kinase profile, CDK2/cyclin E; type: biochemical; settings: mean ± S.D.
T13 construct: purchased Millipore (now Eurofins) KinaseProfiler / IC50 Profiler
Experimental: as §1

EGFR = EGFR (Homo sapiens, UniProt P00533); assay: In vitro kinase assay, EGFR; type: biochemical
Experimental: All kinase assays were carried out using KinaseProfiler^TM and IC50 Profiler^TM (Millipore UK Ltd., Dundee, UK. Now Eurofins Scientific, Dundee, UK). All IC50 data were presented as the mean values.

EGFR (L858R) = target: T14, EGFR (L858R) (Homo sapiens, UniProt P00533, L858R); assay: In vitro kinase assay, EGFR (L858R); type: biochemical
T14 construct: purchased Millipore UK Ltd., Dundee, UK (now Eurofins Scientific); KinaseProfiler / IC50 Profiler service
Experimental: as §1

ROCK-II (h) = target: T15, ROCK-II (h) (Homo sapiens, UniProt O75116); assay: Kinase profile, ROCK-II; type: biochemical; settings: mean ± S.D.
T15 construct: purchased Millipore (now Eurofins) KinaseProfiler / IC50 Profiler
Experimental: as §1

CDK3/cyclin E (h) = target: T16, CDK3/cyclin E (h) (Homo sapiens, UniProt Q00526); assay: Kinase profile, CDK3/cyclin E; type: biochemical; settings: mean ± S.D.
T16 construct: purchased Millipore (now Eurofins) KinaseProfiler / IC50 Profiler
Experimental: as §1

HUVECs [2] = assay: VEGF-induced scratch wound migration assay; type: cell-based, human; settings: VEGF 50 ng/mL, compound 0.5 μg/mL, 8 hours
Experimental: For the cell proliferation assays, cells were incubated overnight in endothelial basal media (EBM; Lonza, Walkersville, MD, USA) containing 0.5% FBS or supplemented with VEGF-A and/or VEGF inhibitors. The cells were washed with PBS and counted in 4 random microscope fields. The tube formation assay was performed by seeding cells on Matrigel-coated plates (BD Bioscience, Bedford, MA, USA) and incubating in EBM containing 0.5% FBS or supplemented with VEGF-A and/or VEGF inhibitors. After overnight incubation, tubule networks were quantified by measuring the tubule length in 4 random microscope fields. For the analysis of scratch wound migration, confluent cell monolayers grown on 6-well plates were scratched using a micropipette tip. After the plates were washed with PBS to remove dislodged cells and media, they were incubated with EBM containing 0.5% FBS or supplemented with VEGF and/or VEGF inhibitors for 8 hours. Cell migration was observed by optical microscopy and quantified by measuring the number of cells that had migrated from the wound edges.

VEGFR-2 = target: T17, VEGFR-2 (Homo sapiens, UniProt P35968); assay: In vitro kinase assay, VEGFR-2; type: biochemical
T17 construct: purchased Millipore UK Ltd., Dundee, UK (now Eurofins Scientific); KinaseProfiler / IC50 Profiler service
Experimental: as §1

[3] = in vitro kinase assay, mean values

T12 sequence (P10721 26-976): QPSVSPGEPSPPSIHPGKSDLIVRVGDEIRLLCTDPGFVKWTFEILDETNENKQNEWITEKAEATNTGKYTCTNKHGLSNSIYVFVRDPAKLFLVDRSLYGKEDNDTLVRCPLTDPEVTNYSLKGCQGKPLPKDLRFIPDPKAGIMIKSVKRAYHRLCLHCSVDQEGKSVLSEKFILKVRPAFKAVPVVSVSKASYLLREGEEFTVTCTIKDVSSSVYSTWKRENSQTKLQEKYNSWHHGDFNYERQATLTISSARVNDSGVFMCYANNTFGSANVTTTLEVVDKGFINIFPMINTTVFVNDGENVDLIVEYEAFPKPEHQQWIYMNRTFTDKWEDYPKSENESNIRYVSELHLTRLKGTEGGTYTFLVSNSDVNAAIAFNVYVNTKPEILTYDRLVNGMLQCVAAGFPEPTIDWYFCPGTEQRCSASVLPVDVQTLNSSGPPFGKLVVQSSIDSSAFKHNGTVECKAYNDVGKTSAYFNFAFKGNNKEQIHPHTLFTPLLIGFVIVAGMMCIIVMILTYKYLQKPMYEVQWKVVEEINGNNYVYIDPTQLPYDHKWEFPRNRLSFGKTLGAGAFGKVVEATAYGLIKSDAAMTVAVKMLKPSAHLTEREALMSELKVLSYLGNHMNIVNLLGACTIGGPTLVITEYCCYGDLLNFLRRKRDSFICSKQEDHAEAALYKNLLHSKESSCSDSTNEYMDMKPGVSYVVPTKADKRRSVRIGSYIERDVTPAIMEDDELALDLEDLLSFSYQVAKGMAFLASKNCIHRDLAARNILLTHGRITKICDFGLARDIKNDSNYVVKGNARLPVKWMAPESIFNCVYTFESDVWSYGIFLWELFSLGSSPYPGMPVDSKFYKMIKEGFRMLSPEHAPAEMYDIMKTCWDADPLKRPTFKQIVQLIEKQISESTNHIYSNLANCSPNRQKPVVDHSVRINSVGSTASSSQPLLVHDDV
T1 sequence (P09619 33-1106): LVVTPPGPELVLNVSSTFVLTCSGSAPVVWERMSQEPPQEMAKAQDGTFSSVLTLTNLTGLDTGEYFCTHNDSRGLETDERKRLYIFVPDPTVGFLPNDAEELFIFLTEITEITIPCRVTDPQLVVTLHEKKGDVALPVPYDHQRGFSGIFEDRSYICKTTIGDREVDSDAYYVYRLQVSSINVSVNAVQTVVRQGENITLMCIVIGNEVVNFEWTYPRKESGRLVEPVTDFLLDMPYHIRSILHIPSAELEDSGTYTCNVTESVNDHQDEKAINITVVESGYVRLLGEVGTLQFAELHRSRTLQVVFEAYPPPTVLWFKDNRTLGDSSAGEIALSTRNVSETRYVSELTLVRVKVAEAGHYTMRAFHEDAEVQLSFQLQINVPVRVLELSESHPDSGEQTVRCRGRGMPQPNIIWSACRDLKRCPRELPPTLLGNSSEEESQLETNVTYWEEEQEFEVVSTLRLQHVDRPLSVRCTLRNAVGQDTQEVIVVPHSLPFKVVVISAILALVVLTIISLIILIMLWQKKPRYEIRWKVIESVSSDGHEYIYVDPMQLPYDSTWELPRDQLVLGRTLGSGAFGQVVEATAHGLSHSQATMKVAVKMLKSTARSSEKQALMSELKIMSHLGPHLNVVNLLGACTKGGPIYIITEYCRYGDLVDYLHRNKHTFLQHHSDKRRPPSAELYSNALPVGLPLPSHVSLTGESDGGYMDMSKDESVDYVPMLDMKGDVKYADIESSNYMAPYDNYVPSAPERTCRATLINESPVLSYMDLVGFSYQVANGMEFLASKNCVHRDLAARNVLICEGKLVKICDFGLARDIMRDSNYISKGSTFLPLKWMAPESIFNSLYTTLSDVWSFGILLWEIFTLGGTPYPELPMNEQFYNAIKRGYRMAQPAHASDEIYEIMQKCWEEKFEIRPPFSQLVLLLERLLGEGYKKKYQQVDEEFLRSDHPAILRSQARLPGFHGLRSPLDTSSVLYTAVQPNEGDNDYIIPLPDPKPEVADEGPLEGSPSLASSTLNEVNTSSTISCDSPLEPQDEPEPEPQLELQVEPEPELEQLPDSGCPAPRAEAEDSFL
T14 sequence (P00533 25-1210 L858R): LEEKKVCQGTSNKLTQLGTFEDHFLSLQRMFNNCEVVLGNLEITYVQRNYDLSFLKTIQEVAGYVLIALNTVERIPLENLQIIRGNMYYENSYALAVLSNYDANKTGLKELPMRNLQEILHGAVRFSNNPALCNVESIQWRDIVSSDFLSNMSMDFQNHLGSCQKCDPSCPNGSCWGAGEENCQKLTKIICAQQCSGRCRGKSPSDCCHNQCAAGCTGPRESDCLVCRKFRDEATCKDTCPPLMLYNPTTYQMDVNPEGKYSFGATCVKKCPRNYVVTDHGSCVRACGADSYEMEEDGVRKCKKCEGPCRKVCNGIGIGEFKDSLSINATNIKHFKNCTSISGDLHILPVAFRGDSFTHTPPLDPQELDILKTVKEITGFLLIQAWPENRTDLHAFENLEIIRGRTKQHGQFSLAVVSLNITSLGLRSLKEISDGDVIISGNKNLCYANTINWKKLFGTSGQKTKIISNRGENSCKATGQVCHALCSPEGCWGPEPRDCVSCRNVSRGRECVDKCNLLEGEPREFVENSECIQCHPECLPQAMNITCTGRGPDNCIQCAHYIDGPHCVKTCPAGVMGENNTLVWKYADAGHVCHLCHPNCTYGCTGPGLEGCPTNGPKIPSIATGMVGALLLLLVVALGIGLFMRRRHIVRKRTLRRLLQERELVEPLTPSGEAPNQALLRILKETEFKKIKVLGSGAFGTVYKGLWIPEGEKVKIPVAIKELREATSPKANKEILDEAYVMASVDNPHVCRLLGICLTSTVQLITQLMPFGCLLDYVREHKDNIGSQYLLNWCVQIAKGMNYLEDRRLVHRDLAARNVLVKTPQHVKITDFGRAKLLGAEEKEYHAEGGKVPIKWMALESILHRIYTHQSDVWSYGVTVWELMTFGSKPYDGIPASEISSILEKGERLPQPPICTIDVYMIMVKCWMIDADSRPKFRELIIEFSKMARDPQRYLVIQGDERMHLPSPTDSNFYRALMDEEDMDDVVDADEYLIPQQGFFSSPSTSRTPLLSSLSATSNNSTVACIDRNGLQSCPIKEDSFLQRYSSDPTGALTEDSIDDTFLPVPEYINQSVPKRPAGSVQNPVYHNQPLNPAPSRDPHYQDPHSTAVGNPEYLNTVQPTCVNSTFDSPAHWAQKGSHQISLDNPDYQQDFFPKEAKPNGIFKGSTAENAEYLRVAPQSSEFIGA
T17 sequence (P35968 20-1356): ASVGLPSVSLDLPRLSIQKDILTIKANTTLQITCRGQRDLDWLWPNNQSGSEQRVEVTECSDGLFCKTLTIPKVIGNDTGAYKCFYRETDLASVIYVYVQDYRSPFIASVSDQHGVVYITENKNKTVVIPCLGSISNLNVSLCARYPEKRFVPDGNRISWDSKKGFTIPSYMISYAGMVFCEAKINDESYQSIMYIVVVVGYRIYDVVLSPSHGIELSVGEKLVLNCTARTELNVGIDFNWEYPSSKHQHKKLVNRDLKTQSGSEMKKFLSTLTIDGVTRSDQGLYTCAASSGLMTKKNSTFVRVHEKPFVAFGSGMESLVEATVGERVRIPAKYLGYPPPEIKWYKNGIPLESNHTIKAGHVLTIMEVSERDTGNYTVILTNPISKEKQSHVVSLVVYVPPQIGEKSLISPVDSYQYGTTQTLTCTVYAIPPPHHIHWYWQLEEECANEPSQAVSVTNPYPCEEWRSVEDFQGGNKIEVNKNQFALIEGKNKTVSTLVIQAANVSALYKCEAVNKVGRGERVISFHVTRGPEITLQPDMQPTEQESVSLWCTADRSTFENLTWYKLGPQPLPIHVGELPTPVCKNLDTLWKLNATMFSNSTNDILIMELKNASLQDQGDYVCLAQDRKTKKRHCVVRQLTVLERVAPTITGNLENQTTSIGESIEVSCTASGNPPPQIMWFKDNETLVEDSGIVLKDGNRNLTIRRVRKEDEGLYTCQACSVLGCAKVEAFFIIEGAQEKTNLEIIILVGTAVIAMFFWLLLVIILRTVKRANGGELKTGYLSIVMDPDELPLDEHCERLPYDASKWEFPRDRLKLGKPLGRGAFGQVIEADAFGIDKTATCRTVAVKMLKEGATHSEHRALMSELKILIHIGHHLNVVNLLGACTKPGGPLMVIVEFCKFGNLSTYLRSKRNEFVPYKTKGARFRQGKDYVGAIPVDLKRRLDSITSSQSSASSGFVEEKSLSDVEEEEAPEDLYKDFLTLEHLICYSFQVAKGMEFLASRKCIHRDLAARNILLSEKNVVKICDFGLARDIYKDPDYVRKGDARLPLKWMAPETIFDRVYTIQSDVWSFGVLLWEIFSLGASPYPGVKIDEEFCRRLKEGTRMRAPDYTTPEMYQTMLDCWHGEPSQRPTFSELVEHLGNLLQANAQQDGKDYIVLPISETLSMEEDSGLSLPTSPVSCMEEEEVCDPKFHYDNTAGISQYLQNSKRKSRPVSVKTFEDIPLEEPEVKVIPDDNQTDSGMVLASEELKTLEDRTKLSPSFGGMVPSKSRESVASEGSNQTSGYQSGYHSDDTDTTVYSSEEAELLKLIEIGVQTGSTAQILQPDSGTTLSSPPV
T9 sequence (P07948 whole entry): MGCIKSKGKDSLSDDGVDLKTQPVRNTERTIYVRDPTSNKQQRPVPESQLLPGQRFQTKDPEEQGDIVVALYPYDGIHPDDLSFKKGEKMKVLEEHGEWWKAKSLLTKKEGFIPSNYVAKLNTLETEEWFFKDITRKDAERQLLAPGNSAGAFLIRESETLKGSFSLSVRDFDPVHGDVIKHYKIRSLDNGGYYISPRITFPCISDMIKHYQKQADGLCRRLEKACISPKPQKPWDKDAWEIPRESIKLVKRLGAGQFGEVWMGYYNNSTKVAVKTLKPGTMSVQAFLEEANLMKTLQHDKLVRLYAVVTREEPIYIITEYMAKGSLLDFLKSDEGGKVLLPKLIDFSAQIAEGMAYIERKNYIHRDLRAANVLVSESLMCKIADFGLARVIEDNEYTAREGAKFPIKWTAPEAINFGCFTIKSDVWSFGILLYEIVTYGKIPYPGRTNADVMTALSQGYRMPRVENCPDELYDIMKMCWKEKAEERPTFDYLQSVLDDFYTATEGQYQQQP

Cc1ccc(Nc2nccc(N(C)c3ccc4[nH]ccc4c3)n2)cc1S(N)(=O)=O [MKP101]
inhibition at 1 µM (PDGFRβ; 1 μM, mean ± S.D., read-out: % inhibition at 1 μM, PDGFRβ (h)): 95 ± 1%
IC50 (PDGFRβ; in vitro kinase assay): 70 nM
inhibition at 1 µM (CDK9/cyclin T1 (h)): 54 ± 4%
inhibition at 1 µM (CaMKIIδ (h)): 41 ± 3%
inhibition at 1 µM (PKCη (h)): 0%
inhibition at 1 µM (SAPK2a (h)): 82 ± 2%
Effect on VEGF-induced increase in tube formation (HUVECs [1]): significantly inhibited
inhibition at 1 µM (Abl (h)): 100 ± 2%
inhibition at 1 µM (PKCθ (h)): 16 ± 2%
inhibition at 1 µM (AMPKα1 (h)): 0%
inhibition at 1 µM (Lyn (h)): 98 ± 1%
inhibition at 1 µM (CDK5/p25 (h)): 47 ± 2%
inhibition at 1 µM (IR (h)): 14 ± 3%
inhibition at 1 µM (cKit; 1 μM, mean ± S.D., read-out: % inhibition at 1 μM, cKit(h)): 99%
IC50 (cKit; in vitro kinase assay): 108 nM
inhibition at 1 µM (CDK2/cyclin E (h)): 8 ± 1%
inhibition at 1 µM (EGFR; 1 μM, mean ± S.D., read-out: % inhibition at 1 μM, EGFR(h)): 96 ± 2%
IC50 (EGFR; [3]): 43 nM
inhibition at 1 µM (EGFR (L858R); 1 μM, mean ± S.D., read-out: % inhibition at 1 μM, EGFR(L858R)(h)): 96 ± 1%
IC50 (EGFR (L858R); [3]): 17 nM
inhibition at 1 µM (ROCK-II (h)): 4 ± 1%
inhibition at 1 µM (CDK3/cyclin E (h)): 6 ± 2%
Effect on VEGF-induced increase in migration (HUVECs [2]): significantly inhibited
inhibition at 1 µM (VEGFR-2; 1 μM, mean ± S.D., read-out: % inhibition at 1 μM, VEGFR-2 (h)): 94 ± 2%
IC50 (VEGFR-2; in vitro kinase assay): 32 nM
